Laboratory results reported in patent US20250074901A1, “NOVEL HETEROARYL COMPOUNDS” (ICAGEN, LLC, priority 2021, published 2025).

Target: T1, Kv7.2 (Homo sapiens, UniProt O43526)
T1 construct: expressed in transfected cells
Assay: Activation of Kv7.2 (in vitro assay, concentration response curve)
Assay type: cell-based
Conditions: for Emax: Kv7.2 activation max %; for EC50: activation of Kv7.2
Outline: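 EC50 is the half-maximal effective concentration, relative to the Emax observed for each compound in this in vitro assay. It was derived from concentration–response curves of the agonistic effect measured over a series of concentrations.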

SMILES | Emax [%] | EC50 [nM]
O=C(NCc1ccnc(OCF)c1)NC12CCC(F)(CC1)CC2 [Example 208, 1-(4-fluoro-1-bicyclo[2.2.2]octanyl)-3-[[2-(fluoromethoxy)pyridin-4-yl]methyl]urea] | 58 | 470
O=C(NCc1ccnc(OC2CC(F)(F)C2)c1)N[C@H]1C[C@H](C(F)(F)F)C1 [Example 209, 1-[[2-(3,3-difluorocyclobutyl)oxypyridin-4-yl]methyl]-3-[(1r,3r)-3-(trifluoromethyl)cyclobutyl]urea] | 71 | 490
O=C(NCc1ccnc(OCC(F)(F)F)c1)NCC1(F)CCC1 [Example 210, 1-[(1-fluorocyclobutyl)methyl]-3-[[2-(2,2,2-trifluoroethoxy)pyridin-4-yl]methyl]urea] | 48 | 160
O=C(NCc1ccnc(OC(F)F)c1)N[C@H]1CC[C@@H](C(F)(F)F)CC1 [Example 211, 1-[[2-(difluoromethoxy)pyridin-4-yl]methyl]-3-[(1s,4s)-4-(trifluoromethyl)cyclohexyl]urea] | 61 | 320
C[Si](C)(C)CCNC(=O)NCc1ccnc(OC(F)F)c1 [Example 212, 1-[[2-(difluoromethoxy)pyridin-4-yl]methyl]-3-(2-trimethylsilylethyl) urea] | 82 | 400
O=C(NCc1ccnc(OCC(F)CF)c1)NC12CCC(F)(CC1)CC2 (stereo not drawn) [Example 213, 1-[[2-(2,3-difluoropropoxy)pyridin-4-yl]methyl]-3-(4-fluoro-1-bicyclo[2.2.2]octanyl)urea] | 47 | 340
O=C(NCc1ccnc(OCC(F)CF)c1)N[C@H]1C[C@H](C(F)(F)F)C1 (stereo partly drawn) [Example 214, 1-[[2-(2,3-difluoropropoxy)pyridin-4-yl]methyl]-3-[(1r,3r)-3-(trifluoromethyl)cyclobutyl]urea] | 54 | 500
O=C(NCc1cnnc(OCC(F)(F)F)c1)N[C@H]1C[C@H](C(F)(F)F)C1 [Example 215] | 40 | 6830
O=C(NCc1ccnc(OCC(F)CF)c1)NC12CC(F)(C1)C2 (stereo not drawn) [Example 216, 1-[[2-(2,3-difluoropropoxy)pyridin-4-yl]methyl]-3-(3-fluoro-1-bicyclo[1.1.1]pentanyl)urea] | 50 | 1470
O=C(NCc1ccnc(OCC(F)F)c1)NC12CC(F)(C1)C2 [Example 217, 1-[[2-(2,2-difluoroethoxy)pyridin-4-yl]methyl]-3-(3-fluoro-1-bicyclo[1.1.1]pentanyl)urea] | 43 | 310
Cc1cccc(NC(=O)NCc2ccnc(OC(F)F)c2)n1 [Example 218, 1-[[2-(difluoromethoxy)pyridin-4-yl]methyl]-3-(6-methylpyridin-2-yl)urea] | 54 | 1490
O=C(NCc1ccnc(OC(F)F)c1F)N[C@H]1C[C@H](C(F)(F)F)C1 [Example 219, 1-[[2-(difluoromethoxy)-3-fluoropyridin-4-yl]methyl]-3-[(1r,3r)-3-(trifluoromethyl)cyclobutyl]urea] | 48 | 380
O=C(NCc1ccnc(OCC(F)CF)c1)Nc1cccc(Cl)c1 (stereo not drawn) [Example 220, 1-(3-chlorophenyl)-3-[[2-(2,3-difluoropropoxy)pyridin-4-yl]methyl]urea] | 48 | 460
CC(Oc1cc(CNC(=O)N[C@H]2C[C@H](C(F)(F)F)C2)ccn1)C(F)(F)F (stereo partly drawn) [Example 221, 1-[(1r,3r)-3-(trifluoromethyl)cyclobutyl]-3-[[2-(1,1,1-trifluoropropan-2-yloxy)pyridin-4-yl]methyl]urea] | 78 | 70
O=C(NCc1ccnc(OC(F)F)c1)NC1CCC2C(C1)C2(F)F (stereo not drawn) [Example 222, 1-(7,7-difluoro-3-bicyclo[4.1.0]heptanyl)-3-[[2-(difluoromethoxy)pyridin-4-yl]methyl]urea] | 76 | 180
CC(Oc1cc(CNC(=O)NC23CC(F)(C2)C3)ccn1)C(F)(F)F (stereo not drawn) [Example 223, 1-(3-fluoro-1-bicyclo[1.1.1]pentanyl)-3-[[2-(1,1,1-trifluoropropan-2-yloxy)pyridin-4-yl]methyl]urea] | 66 | 210
O=C(NCc1ccnc(OC2CC(F)(F)C2)c1)NC12CC(F)(C1)C2 [Example 224, 1-[[2-(3,3-difluorocyclobutyl)oxypyridin-4-yl]methyl]-3-(3-fluoro-1-bicyclo[1.1.1]pentanyl)urea] | 40 | 540
O=C(NCc1ccnc(OC(F)F)c1)NC1CCOC(C(F)(F)F)C1 (stereo not drawn) [Example 226, 1-[[2-(difluoromethoxy)pyridin-4-yl]methyl]-3-[2-(trifluoromethyl)oxan-4-yl]urea] | 40 | 2450
O=C(NCc1ccnc(OC(F)F)c1)NCC1(F)CCCC1 [Example 227, 1-[[2-(difluoromethoxy)pyridin-4-yl]methyl]-3-[(1-fluorocyclopentyl)methyl]urea] | 49 | 410
O=C(NCc1ccnc(OC(F)F)c1)NC(C(F)(F)F)C(F)(F)F [Example 228, 1-[[2-(difluoromethoxy)pyridin-4-yl]methyl]-3-(1,1,1,3,3,3-hexafluoropropan-2-yl)urea] | 58 | 260
O=C(NCc1ccnc(OC(F)F)c1)NCC1(C(F)(F)F)CC1 [Example 229, 1-[[2-(difluoromethoxy)pyridin-4-yl]methyl]-3-[[1-(trifluoromethyl)cyclopropyl]methyl]urea] | 49 | 600
O=C(NCc1ccnc(OC(F)F)c1)N[C@@H](C(F)F)C1CC(F)(F)C1 [Example 230, 1-[(1R)-1-(3,3-difluorocyclobutyl)-2,2-difluoroethyl]-3-[[2-(difluoromethoxy)pyridin-4-yl]methyl]urea] | 55 | 1090
CC(F)(F)c1cc(CNC(=O)Nc2cccc(Cl)c2)ccn1 [Example 231, 1-(3-chlorophenyl)-3-[[2-(1,1-difluoroethyl)pyridin-4-yl]methyl]urea] | 51 | 800
O=C(Nc1cccc(CF)c1)NC(CO)c1ccnc(OCC(F)(F)F)c1 (stereo not drawn) [Example 232, 1-[3-(fluoromethyl)phenyl]-3-[2-hydroxy-1-[2-(2,2,2-trifluoroethoxy)pyridin-4-yl]ethyl]urea] | 47 | 250
Cc1cccc(NC(=O)NC(CO)c2ccnc(OCC(F)(F)F)c2)c1 (stereo not drawn) [Example 233, 1-[2-hydroxy-1-[2-(2,2,2-trifluoroethoxy)pyridin-4-yl]ethyl]-3-(3-methylphenyl)urea] | 68 | 130
O=C(NCc1ccnc(OCC(F)(F)F)c1)NC1CC(C2CC2)C1 (stereo not drawn) [Example 235, 1-(3-cyclopropylcyclobutyl)-3-[[2-(2,2,2-trifluoroethoxy)pyridin-4-yl]methyl]urea] | 88 | 80
O=C(NCc1ccnc(OC(F)F)c1)NCC1(C(F)(F)F)CCC1 [Example 237, 1-[[2-(difluoromethoxy)pyridin-4-yl]methyl]-3-[[1-(trifluoromethyl)cyclobutyl]methyl]urea] | 54 | 160
